Like-named read-outs stand apart in the source and are kept apart here.

The nature of series [1]: Integrated nucleator-crystallizer (Coflore crystallizer) experiment, crystal size. The following applies: for d0.1 / d0.5 / d0.9: Integrated nucleator crystallization.
The conditions of series [2]: w/w = g chemical/g solution; cited from earlier work.
The procedure of series [3]:
(§1) To perform the analysis, a drop of solution or 1 mg of crystals dispersed in a few drops of mineral oil was first imaged using a 5× objective.

The conditions of series [4]: Seeded Crystallization. As for the experimental part: as §1
A continuous crystallization process with seeding was evaluated for comparison with an integrated nucleator-crystallizer device. A schematic diagram of the seeded crystallization experiment is depicted in FIG. 13. Seed crystals (nuclei) were obtained from antisolvent crystallization of glycine (to generate small crystals). Crystals obtained from antisolvent crystallization were sieved through a series of sieves with openings of 90, 63, and 45 μm. Seeds were collected from the 45 μm sieve.
For the seeded crystallization experiment, the crystallizer was first filled with the feed solution. Once filled, the process was seeded by pumping (50 mL/min) a suspension of 0.05 g seed in 25 mL feed solution into the crystallizer. After seeding, the crystallization process proceeded with continuous input of clear feed solution at 50 mL/min. Glycine crystals were collected by vacuum filtration at the crystallizer outlet. Except for the seeding procedure, the other experimental conditions for the seeded crystallization experiment were kept identical to the integrated nucleator-crystallizer experiment of Example 4.
Feed solution concentration: 24% (20% above saturation)
Residence time in crystallizer (100 mL): 2 min
Crystallizer holding temperature: 28° C.
The data were analyzed with crystals collected between 4-5 residence times (RT) when the device was at steady state.
To investigate the feasibility of the seeded experiment, a second experiment was conducted at lower crystallizer temperature (higher supersaturation that could potentially improve crystal growth rate).

The nature of series [5]: Integrated nucleator-tubular crystallizer experiment, crystal size by microscopic analysis. It is filed as physicochemical. As for the experimental part: as §1
These experiments involved connecting the generator to a tubular crystallizer for crystal growth. This integrated nucleator-crystallizer experiment was conducted with a 49 mL tubular coiled crystallizer (Masterflex® L/S®, Chem-Durance® Bio tubing, ID=3.2 mm, Length=20 ft) using 1.54% acetaminophen solution. During the experiment, relatively small crystals generated in the nucleator were pumped into the tubular crystallizer at the same flow rate as the nuclei generator. The small crystals then grew in the crystallizer for a fixed residence time before the crystals were collected by vacuum filtration, as shown in FIG. 2. Two experiments at flow rates of 14.2 and 11.3 mL/min were conducted. The particle size distributions of the crystals were determined by microscopic analysis (Nikon Eclipse ME600).
The nuclei generator can be integrated into crystallization processes in which the production of crystals of specific size distribution is desired (See, e.g., FIGS. 1B, 1C, 2, 12). In some embodiments, with the continuous generation of nuclei, the nucleation and growth events were decoupled. In this case, nucleation was triggered in the nucleator, while growth continued in the crystallizer. Multiple integrated nucleator—tubular crystallizer experiments were conducted that illustrate this process.

Series [6] in a line: Nucleator only experiments, in-line FBRM chord length distribution. The series is classed as physicochemical. To be noted: FBRM at nucleator outlet, residence time 7.4 s and 10.3 s. From the text: In some embodiments, Focused Beam Reflectance Measurement (FBRM) or similar technique may be used to obtain characteristic size information. FBRM, in some embodiments, provides an ability to measure objects (e.g., crystals) in suspensions, e.g., at full process concentration, without the need for sample extraction and sample preparation. In some embodiments, FBRM method of measurement may be used which is based on a measurement of Chord Length Distribution that simultaneously tracks the rate and degree of change in particle count and mean chord length. As used herein, the term “chord length” refers to the length of a line segment passing across a portion of a projection of an object on a two-dimensional plane, and whose end points lie on the edge of the projection. The term “mean chord length” refers to the mean length of multiple chords, e.g., multiple randomly orientated chords. Methods for measuring mean particle count and mean chord length are well known in the art. See, […]. Particle Size Measurements: Fundamentals, Practice, Quality. […] Copyright 2009 Springer Science+Business Media B.V., and references cited therein.

For `NCC(=O)O` [Glycine, glycine], in series [1] (24% solution, 50 mL/min, approx. 10 s in nucleator), the “average size of nuclei upon leaving the nucleator” value is 14 μm. Also, the “average size of crystals from Coflore crystallizer” value in series [1] (24% solution, 50 mL/min, approx. 2 minutes in crystallizer, 28° C.) stood at 48 μm. Besides, the d0.1 in series [1] (Coflore) stood at 13.9 μm; in series [1] (Nucleator), 2.4 μm; in series [4] (Run 1 (Tcryst = 28° C.)), 6.3 μm; in series [4] (Run 2 (Tcryst = 25° C.)), 7.4 μm; in series [4] (Seed) it was 2.4 μm. The d0.5 in series [1] (Coflore) worked out at 34.1 μm; in series [1] (Nucleator) it was 8.8 μm; in series [4] (Run 1 (Tcryst = 28° C.)), 14.6 μm; in series [4] (Run 2 (Tcryst = 25° C.)), 28.8 μm; in series [4] (Seed) it was 10.3 μm. The d0.9 was found to be 91.9 μm in series [1] (Coflore); 27.2 μm in series [1] (Nucleator); 44.6 μm in series [4] (Run 1 (Tcryst = 28° C.)); 90.3 μm in series [4] (Run 2 (Tcryst = 25° C.)); 50.8 μm in series [4] (Seed). Besides, the “Saturation concentration at 25° C. (Cs)” value in series [2] is 20^15 % w/w. In addition, the “size below which 90% of the nuclei lie” value in series [3] (21% glycine solution, 30 s residence time, nucleator only) is given as “less than 12.28 μm”. Besides, the “coefficient of variation (CV) of nuclei size” value in series [3] (21% glycine solution, three residence times) is given as roughly 1. The “size of nuclei obtained (mostly)” value in series [3] (21% glycine solution, three residence times (30 s, 2 min, 3.5 min)) is “less than 20 μm”. Further, in series [3] (glycine experiments, nucleator device), the “mean size of small crystals generated with the nucleator” value was “up to 14 μm”.

As for `CC(=O)Nc1ccc(O)cc1` [Acetaminophen, acetaminophen], in series [2], the “Saturation concentration at 25° C. (Cs)” value is 1.48^16 % w/w. For the same molecule, in series [5] (flow rate 11.31 mL/min), the “average growth rate inside the nucleator” value is reported as 1.47×10^−7 m/s and the “mean size of crystals leaving the nucleator” value amounted to 6.7 μm. In series [5] (flow rate 11.31 mL/min, after 4.3 min in the tubular crystallizer), the “mean size of crystals after tubular crystallizer” value was determined as 13.5 μm. Also, the “average growth rate inside the crystallizer” value in series [5] (flow rate 11.31 mL/min, tubular crystallizer) is 2.62×10^−7 m/s. In series [5] (integrated nucleator and tubular crystallizer, FIG. 9), the “mean size of small crystals produced” value stood at 12 μm. For the same molecule, the “span (D (0.9)-D (0.1)) of chord length distribution” value in series [6] is given as “≈ 20 μm”.

The values are drawn from patent publication US9233912B2, “Devices and methods for crystallization” (Massachusetts Institute of Technology, priority 2013, dated 2016).
